Test [1] deals with Prothrombin (Homo sapiens) (UniProt P00734). As to the kind of experiment: Inhibitory activity against the human alpha-thrombin.
A short description of test [2]: Anticoagulant activity for the compound by determining the concentration required to double the activated partial thromboplastin time. The format is functional.
Test [3] deals with Vitamin K-dependent protein C (Homo sapiens) (UniProt P04070). As to the kind of experiment: Inhibitory activity against the activated human protein C.
Test [4] concerns the target Serine protease 1 (Homo sapiens) (UniProt P07477). Nature of the test: Inhibitory activity against the human trypsin.
Test [5] in a line: Anticoagulant activity for the compound by determining the concentration required to double the thrombin time. In kind it is functional.
The target in test [6] is Urokinase-type plasminogen activator (Homo sapiens) (UniProt P00749). Nature of the test: Inhibitory activity against the human urokinase.
The target in test [7] is Plasminogen (Homo sapiens) (UniProt P00747). Nature of the test: Inhibitory activity against the human plasmin.
The nature of test [8]: Anticoagulant activity for the compound by determining the concentration required to double the prothrombin time. In kind it is functional.
Test [9] has as its target Vitamin K-dependent protein C (Homo sapiens) (UniProt P04070). As to the kind of experiment: Inhibitory activity against the human activated protein C.
The target of test [10] is Tissue-type plasminogen activator (Homo sapiens) (UniProt P00750). As to the kind of experiment: Inhibitory activity against the human tissue plasminogen activator.

Results on eleven compounds are retold here after ChEMBL document CHEMBL1131990, “The design of potent, selective, non-covalent, peptide thrombin inhibitors utilizing imidazole as a S1 binding element” (Bioorg Med Chem Lett, 1999).

Where only a bound is given, the exact number is not on record here.

Chain of Vitamin K-dependent protein C (Homo sapiens) (P04070 43-197 limits assumed): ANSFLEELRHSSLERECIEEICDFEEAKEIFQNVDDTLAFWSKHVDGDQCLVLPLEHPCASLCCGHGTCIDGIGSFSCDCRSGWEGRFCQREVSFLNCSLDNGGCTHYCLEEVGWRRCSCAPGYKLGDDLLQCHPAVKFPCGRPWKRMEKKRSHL
Chain of Vitamin K-dependent protein C (Homo sapiens) (P04070 212-461 limits assumed): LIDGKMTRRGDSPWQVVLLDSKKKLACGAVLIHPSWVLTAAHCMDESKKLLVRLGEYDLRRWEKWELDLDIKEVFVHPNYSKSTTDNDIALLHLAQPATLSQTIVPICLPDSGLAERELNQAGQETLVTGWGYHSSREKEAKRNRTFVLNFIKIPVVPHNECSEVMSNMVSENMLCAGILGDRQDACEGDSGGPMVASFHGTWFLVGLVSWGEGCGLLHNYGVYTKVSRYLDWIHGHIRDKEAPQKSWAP
Chain of Serine protease 1 (Homo sapiens) (P07477 whole entry): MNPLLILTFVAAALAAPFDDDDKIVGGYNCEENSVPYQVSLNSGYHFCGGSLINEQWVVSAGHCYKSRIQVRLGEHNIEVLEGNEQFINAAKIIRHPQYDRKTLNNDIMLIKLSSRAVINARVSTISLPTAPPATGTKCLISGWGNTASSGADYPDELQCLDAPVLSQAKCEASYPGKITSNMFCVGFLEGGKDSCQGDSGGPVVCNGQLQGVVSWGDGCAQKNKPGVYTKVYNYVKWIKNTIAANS
Chain of Plasminogen (Homo sapiens) (P00747 97-580 limits assumed): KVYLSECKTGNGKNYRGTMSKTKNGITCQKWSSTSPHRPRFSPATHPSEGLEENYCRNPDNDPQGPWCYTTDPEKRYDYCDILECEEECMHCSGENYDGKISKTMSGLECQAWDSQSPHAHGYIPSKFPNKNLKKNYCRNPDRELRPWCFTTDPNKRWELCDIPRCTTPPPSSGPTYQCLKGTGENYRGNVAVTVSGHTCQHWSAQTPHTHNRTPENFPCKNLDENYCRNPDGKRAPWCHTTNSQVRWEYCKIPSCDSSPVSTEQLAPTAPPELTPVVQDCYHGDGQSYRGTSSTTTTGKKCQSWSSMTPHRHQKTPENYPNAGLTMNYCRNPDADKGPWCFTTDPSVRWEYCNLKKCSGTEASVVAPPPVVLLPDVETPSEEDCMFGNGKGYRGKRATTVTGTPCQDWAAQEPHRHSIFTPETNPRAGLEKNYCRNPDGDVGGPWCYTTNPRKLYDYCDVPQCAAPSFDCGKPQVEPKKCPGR
Chain of Plasminogen (Homo sapiens) (P00747 581-810 limits assumed): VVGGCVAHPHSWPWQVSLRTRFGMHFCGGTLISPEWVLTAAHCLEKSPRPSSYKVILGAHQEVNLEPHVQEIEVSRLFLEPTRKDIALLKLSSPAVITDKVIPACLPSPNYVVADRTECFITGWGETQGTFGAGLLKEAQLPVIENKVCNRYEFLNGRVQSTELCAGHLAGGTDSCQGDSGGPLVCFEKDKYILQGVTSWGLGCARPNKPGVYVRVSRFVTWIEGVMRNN
Chain of Tissue-type plasminogen activator (Homo sapiens) (P00750 36-562 limits assumed): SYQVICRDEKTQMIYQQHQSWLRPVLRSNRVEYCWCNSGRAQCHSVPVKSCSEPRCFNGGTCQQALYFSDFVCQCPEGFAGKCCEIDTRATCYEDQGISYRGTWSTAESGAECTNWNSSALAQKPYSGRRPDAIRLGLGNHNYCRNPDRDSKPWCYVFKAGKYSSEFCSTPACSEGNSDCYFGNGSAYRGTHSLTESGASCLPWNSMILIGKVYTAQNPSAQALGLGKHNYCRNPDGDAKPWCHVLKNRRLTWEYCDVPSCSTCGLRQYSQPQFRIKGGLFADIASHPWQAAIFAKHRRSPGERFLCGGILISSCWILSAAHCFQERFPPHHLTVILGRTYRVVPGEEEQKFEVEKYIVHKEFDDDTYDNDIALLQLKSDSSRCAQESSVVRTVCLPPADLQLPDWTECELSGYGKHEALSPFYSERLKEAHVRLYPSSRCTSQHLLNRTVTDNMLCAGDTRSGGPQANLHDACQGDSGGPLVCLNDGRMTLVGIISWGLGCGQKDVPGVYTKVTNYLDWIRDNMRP

In the case of `N[C@H](CC1CCCCC1)C(=O)N1CCC[C@H]1C(=O)NC/C=C/c1c[nH]cn1`, the K ass in test [1] was 1.6e+07 l M-1.

Turning to `O=C(O)CN[C@H](CC1CCCCC1)C(=O)N1CCC[C@H]1C(=O)NC/C=C/c1c[nH]cn1`, the K ass in test [1] is 8.4e+07 l M-1.

Regarding `N[C@H](CC1CCCCC1)C(=O)N1[C@H](C(=O)NC/C=C/c2c[nH]cn2)C[C@@H]2CCCC[C@@H]21`, the K ass in test [1] was 7e+06 l M-1.

Consider `N[C@H](CC1CCCCC1)C(=O)N1CCC[C@H]1C(=O)NCCc1c[nH]cn1`, for which, in test [1], the K ass is 4.4e+06 l M-1.

As for `N[C@H](CC1CCCCC1)C(=O)N1CCC[C@H]1C(=O)NCCCCc1c[nH]cn1`, the K ass in test [1] is 1.3e+06 l M-1.

For `CN[C@H](Cc1ccccc1)C(=O)N1CCC[C@H]1C(=O)N[C@H](C=O)CCCNC(=N)N`, the Concentration in [2] came to 930 ng/mL; in test [5], 41 ng/mL; in test [8], 1000 ng/mL. Further, the K ass was 300000 l M-1 in test [3]; 91 l M-1 in test [4]; 40000 l M-1 in test [6]; 6.7e+08 l M-1 in [1]; 1.5e+06 l M-1 in [7].

Consider `O=C(O)CN[C@H](CC1CCCCC1)C(=O)N1CCC[C@H]1C(=O)NCCCc1c[nH]cn1`, for which the results for the Concentration in test [2], in test [5] and in [8] were 170 ng/mL, 20 ng/mL and 380 ng/mL, respectively. Besides, the K ass in test [4] was 290000 l M-1; in [9], 20000 l M-1; in [6], < 10000 l M-1; in test [1] it was 1e+08 l M-1; in [7], < 10000 l M-1; in test [10], < 10000 l M-1.

In the case of `N[C@H](CC1CCCCC1)C(=O)N1[C@H](C(=O)NCCCc2c[nH]cn2)C[C@@H]2CCCC[C@@H]21`, the Concentration in [2] turned out to be 470 ng/mL; in test [5], 61 ng/mL; in [8] it was 700 ng/mL. Besides, the K ass was 40000 l M-1 in [4]; 10000 l M-1 in [9]; < 10000 l M-1 in [6]; 3.4e+07 l M-1 in [1]; < 10000 l M-1 in [7]; < 10000 l M-1 in test [10].

Consider `NC(N)=NCCCCNC(=O)[C@@H]1CCCN1C(=O)[C@H](N)CC1CCCCC1`, for which the Concentration came out at 490 ng/mL in test [2], 44 ng/mL in [5] and 770 ng/mL in test [8]. In addition, the K ass in [3] was 10000 l M-1; in test [4] it was 260000 M⁻¹; in test [6], < 10000 l M-1; in test [1] it was 3e+07 l M-1; in test [7], 10000 l M-1; in [10] it was 11000 l M-1.

`Cc1[nH]cnc1CCCNC(=O)[C@@H]1CCCN1C(=O)[C@H](N)CC1CCCCC1`: the K ass in [1] is 2.3e+07 l M-1.

`N[C@H](CC1CCCCC1)C(=O)N1CCC[C@H]1C(=O)NCCCc1c[nH]cn1`: the Concentration was 660 ng/mL in test [2], 74 ng/mL in test [5] and 1000 ng/mL in test [8]. Also, the K ass is 10000 l M-1 in [4]; < 10000 l M-1 in [9]; < 10000 l M-1 in test [6]; 2e+07 l M-1 in test [1]; < 10000 l M-1 in test [7]; < 10000 l M-1 in test [10].
